Entries after “also recorded” stand apart in the source; their conditions may differ.
Columns and labels:
[1] = system: C2C12 myoblasts; assay: Differentiation of C2C12 myoblasts; type: cell-based; conditions: 10 μM ICG-001, compared to differentiation medium or growth medium (FIGS. 3, 4)
Experimental: FIG. 4 illustrates that differentiation of C2C12 myeloblasts is induced by 10 μM ICG-001 as compared to differentiation medium.
(§1) From our chemogenomic studies with the small molecule inhibitor of the β-catenin/CBP interaction and additional gene expression profiling, we have developed a model that describes how differential coactivator usage in Wnt signaling controls proliferation vs. differentiation. The critical feature of this model is that the CBP arm (FIG. 2, left side) of the pathway is essential for proliferation without differentiation, for example in cancer or stem cells, whereas the p300 arm (FIG. 2, right side) is critical for differentiation, with limited proliferation.

[2] = system: 3T3-L1 preadipocytes; assay: Differentiation of 3T3-L1 preadipocytes; type: cell-based
Text: as §1

[3] = target: β-catenin/CBP (Homo sapiens, UniProt Q92793); conditions: CBP arm of the Wnt pathway; cited from earlier work
[4] = system: cancer cells; conditions: cited from earlier work

Chain of β-catenin/CBP (Q92793 whole entry): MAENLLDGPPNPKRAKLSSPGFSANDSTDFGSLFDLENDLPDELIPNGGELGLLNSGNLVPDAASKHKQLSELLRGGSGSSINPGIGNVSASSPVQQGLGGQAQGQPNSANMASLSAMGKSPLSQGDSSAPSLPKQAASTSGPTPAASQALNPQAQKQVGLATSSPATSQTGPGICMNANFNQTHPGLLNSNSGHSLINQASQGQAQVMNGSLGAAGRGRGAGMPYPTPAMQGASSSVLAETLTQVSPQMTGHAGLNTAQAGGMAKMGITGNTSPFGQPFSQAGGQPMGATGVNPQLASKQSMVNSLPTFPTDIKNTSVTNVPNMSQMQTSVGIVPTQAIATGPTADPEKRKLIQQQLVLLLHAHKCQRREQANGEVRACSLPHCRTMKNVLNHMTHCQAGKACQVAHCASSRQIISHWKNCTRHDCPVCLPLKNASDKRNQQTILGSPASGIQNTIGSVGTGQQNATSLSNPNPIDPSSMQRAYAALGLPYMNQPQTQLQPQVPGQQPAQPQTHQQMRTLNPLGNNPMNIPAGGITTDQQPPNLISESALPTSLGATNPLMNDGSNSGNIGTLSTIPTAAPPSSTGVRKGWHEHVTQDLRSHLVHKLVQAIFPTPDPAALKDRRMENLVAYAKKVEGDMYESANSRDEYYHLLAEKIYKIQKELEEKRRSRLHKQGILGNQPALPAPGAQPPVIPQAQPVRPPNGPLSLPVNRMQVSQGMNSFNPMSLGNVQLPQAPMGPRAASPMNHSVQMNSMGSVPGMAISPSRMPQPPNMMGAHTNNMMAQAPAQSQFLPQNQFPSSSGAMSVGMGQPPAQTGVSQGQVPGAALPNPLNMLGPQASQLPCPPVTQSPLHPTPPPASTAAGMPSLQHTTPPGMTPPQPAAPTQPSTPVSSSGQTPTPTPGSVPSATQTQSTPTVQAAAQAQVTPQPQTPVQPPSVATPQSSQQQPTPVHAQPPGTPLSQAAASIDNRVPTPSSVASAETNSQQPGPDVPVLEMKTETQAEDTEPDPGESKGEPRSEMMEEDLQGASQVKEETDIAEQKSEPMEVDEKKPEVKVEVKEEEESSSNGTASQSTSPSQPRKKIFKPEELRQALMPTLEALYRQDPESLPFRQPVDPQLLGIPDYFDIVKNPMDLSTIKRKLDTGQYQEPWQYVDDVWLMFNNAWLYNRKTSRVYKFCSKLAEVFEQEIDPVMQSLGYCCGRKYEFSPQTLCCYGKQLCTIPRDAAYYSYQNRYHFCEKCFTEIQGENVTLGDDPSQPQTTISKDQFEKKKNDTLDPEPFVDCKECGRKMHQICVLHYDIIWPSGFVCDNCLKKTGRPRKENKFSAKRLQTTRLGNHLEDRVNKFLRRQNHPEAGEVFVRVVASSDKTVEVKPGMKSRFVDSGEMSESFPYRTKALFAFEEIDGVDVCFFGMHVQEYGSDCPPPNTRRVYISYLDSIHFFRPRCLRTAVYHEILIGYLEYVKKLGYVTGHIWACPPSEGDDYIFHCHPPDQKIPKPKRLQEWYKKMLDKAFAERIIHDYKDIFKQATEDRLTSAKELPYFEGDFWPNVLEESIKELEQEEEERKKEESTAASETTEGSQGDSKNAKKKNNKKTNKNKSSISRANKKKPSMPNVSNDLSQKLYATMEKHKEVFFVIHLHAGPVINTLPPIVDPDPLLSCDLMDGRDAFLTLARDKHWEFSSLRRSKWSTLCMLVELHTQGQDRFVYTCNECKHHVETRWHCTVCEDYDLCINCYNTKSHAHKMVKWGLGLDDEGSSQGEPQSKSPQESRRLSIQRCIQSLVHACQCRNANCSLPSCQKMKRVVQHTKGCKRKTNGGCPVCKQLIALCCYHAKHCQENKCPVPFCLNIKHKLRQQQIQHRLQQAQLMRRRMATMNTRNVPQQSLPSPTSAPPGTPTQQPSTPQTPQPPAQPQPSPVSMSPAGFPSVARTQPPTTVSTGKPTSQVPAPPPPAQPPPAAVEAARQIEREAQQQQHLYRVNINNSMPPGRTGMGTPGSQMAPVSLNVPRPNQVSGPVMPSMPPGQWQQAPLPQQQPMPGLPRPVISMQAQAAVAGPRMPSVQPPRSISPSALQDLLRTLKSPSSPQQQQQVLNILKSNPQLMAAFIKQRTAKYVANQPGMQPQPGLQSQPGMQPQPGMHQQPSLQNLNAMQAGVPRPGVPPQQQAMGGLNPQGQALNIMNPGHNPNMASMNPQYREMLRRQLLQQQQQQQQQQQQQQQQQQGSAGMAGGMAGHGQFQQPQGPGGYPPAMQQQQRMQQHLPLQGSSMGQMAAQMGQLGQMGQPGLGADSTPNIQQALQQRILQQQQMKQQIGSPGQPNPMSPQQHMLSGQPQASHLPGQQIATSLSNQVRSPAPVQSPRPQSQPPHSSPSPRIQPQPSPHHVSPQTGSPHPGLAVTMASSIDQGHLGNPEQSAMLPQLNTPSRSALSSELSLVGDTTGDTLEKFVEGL

## O=C1[C@H](Cc2ccc(O)cc2)N2C(=O)CCN(C(=O)NCc3ccccc3)[C@H]2CN1Cc1cccc2ccccc12 [ICG-001]
[1]
  differentiation of C2C12 myeloblasts (myoblasts): induces the differentiation; also recorded: induced; also recorded: inducing the differentiation
[2]
  differentiation of non-tumorigenic precursor cells, 3T3-L1 preadipocytes: inducing the differentiation
[3]
  inhibition of β-catenin/CBP dependent transcription: specifically inhibits
[4]
  programmed cell death in cancer cells: selectively inducing programmed cell death

Source: US7563825B1, “Modulation of beta-catenin coactivator interactions to effect stem cell growth or differentiation” (Choongwae Pharma Corporation, priority 2005, dated 2009)
